{"source": "PubChem BioAssay (NCI)", "test_in_all_cases": "NCI anticancer screen, dose series, 48 h", "key": {"MDA-MB-435": {"tested_on": "MDA-MB-435"}, "786-0 renal": {"tested_on": "786-0 renal"}, "MCF7 breast": {"tested_on": "MCF7 breast"}, "HCC-2998 colon": {"tested_on": "HCC-2998 colon"}, "NCI-H226 lung": {"tested_on": "NCI-H226 lung"}, "SK-OV-3 ovarian": {"tested_on": "SK-OV-3 ovarian"}, "OVCAR-5 ovarian": {"tested_on": "OVCAR-5 ovarian"}, "SNB-75 CNS": {"tested_on": "SNB-75 CNS"}, "NCI-H522 lung": {"tested_on": "NCI-H522 lung"}, "EKVX NSCLC": {"tested_on": "EKVX NSCLC"}, "MALME-3M melanoma": {"tested_on": "MALME-3M melanoma"}, "LOX IMVI melanoma": {"tested_on": "LOX IMVI melanoma"}, "A498 renal": {"tested_on": "A498 renal"}, "RXF 393 renal": {"tested_on": "RXF 393 renal"}, "SF-268 CNS": {"tested_on": "SF-268 CNS"}, "KM12 colon": {"tested_on": "KM12 colon"}, "MDA-MB-231 breast": {"tested_on": "MDA-MB-231 breast"}, "SF-295 CNS": {"tested_on": "SF-295 CNS"}, "IGROV1 ovarian": {"tested_on": "IGROV1 ovarian"}, "TK-10 renal": {"tested_on": "TK-10 renal"}, "SW-620 colon": {"tested_on": "SW-620 colon"}, "HCT-116 colon": {"tested_on": "HCT-116 colon"}, "HCT-15 colon": {"tested_on": "HCT-15 colon"}, "CCRF-CEM leukemia": {"tested_on": "CCRF-CEM leukemia"}, "K-562 leukemia": {"tested_on": "K-562 leukemia"}, "UO-31 renal": {"tested_on": "UO-31 renal"}, "MDA-N": {"tested_on": "MDA-N"}, "A549 NSCLC": {"tested_on": "A549 NSCLC"}, "DU-145 prostate": {"tested_on": "DU-145 prostate"}, "U251 CNS": {"tested_on": "U251 CNS"}, "MOLT-4 leukemia": {"tested_on": "MOLT-4 leukemia"}, "NCI/ADR-RES ovarian": {"tested_on": "NCI/ADR-RES ovarian"}, "PC-3 prostate": {"tested_on": "PC-3 prostate"}, "COLO 205 colon": {"tested_on": "COLO 205 colon"}, "SF-539 CNS": {"tested_on": "SF-539 CNS"}, "HS 578T breast": {"tested_on": "HS 578T breast"}, "M14 melanoma": {"tested_on": "M14 melanoma"}, "SN12C renal": {"tested_on": "SN12C renal"}, "OVCAR-4 ovarian": {"tested_on": "OVCAR-4 ovarian"}, "T-47D breast": {"tested_on": "T-47D breast"}, "SK-MEL-5 melanoma": {"tested_on": "SK-MEL-5 melanoma"}, "SK-MEL-28 melanoma": {"tested_on": "SK-MEL-28 melanoma"}, "SR leukemia": {"tested_on": "SR leukemia"}, "HOP-92 NSCLC": {"tested_on": "HOP-92 NSCLC"}, "ACHN renal": {"tested_on": "ACHN renal"}, "UACC-62 melanoma": {"tested_on": "UACC-62 melanoma"}, "UACC-257 melanoma": {"tested_on": "UACC-257 melanoma"}, "NCI-H23 lung": {"tested_on": "NCI-H23 lung"}, "CAKI-1 renal": {"tested_on": "CAKI-1 renal"}, "SNB-19 CNS": {"tested_on": "SNB-19 CNS"}, "SK-MEL-2 melanoma": {"tested_on": "SK-MEL-2 melanoma"}, "HT29 colon": {"tested_on": "HT29 colon"}, "BT-549 breast": {"tested_on": "BT-549 breast"}, "RPMI-8226 leukemia": {"tested_on": "RPMI-8226 leukemia"}, "NCI-H460 lung": {"tested_on": "NCI-H460 lung"}, "HOP-62 NSCLC": {"tested_on": "HOP-62 NSCLC"}, "OVCAR-3 ovarian": {"tested_on": "OVCAR-3 ovarian"}, "OVCAR-8 ovarian": {"tested_on": "OVCAR-8 ovarian"}}, "note": "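Dose response: 5 concentrations. Exposure: 48 h. Format: 96-well plates. Endpoint: linear interpolation; highest concentration if not reached. TGI is the concentration that stops growth completely.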"}
{"smiles": "CC1=NN(c2nc(N)nc(CBr)n2)C(C)(C)C1", "values": [{"measurement": "TGI", "setting": "MDA-MB-435", "result": 27.8, "unit": "µM"}, {"measurement": "TGI", "setting": "786-0 renal", "result": 1.78, "unit": "µM"}, {"measurement": "TGI", "setting": "MCF7 breast", "result": 11.3, "unit": "µM"}, {"measurement": "TGI", "setting": "HCC-2998 colon", "result": 30.6, "unit": "µM"}, {"measurement": "TGI", "setting": "NCI-H226 lung", "result": 12.2, "unit": "µM"}, {"measurement": "TGI", "setting": "SK-OV-3 ovarian", "result": 38.7, "unit": "µM"}, {"measurement": "TGI", "setting": "OVCAR-5 ovarian", "result": 13.8, "unit": "µM"}, {"measurement": "TGI", "setting": "SNB-75 CNS", "result": 21.7, "unit": "µM"}, {"measurement": "TGI", "setting": "NCI-H522 lung", "result": 1.01, "unit": "µM"}, {"measurement": "TGI", "setting": "EKVX NSCLC", "result": 15, "unit": "µM"}, {"measurement": "TGI", "setting": "MALME-3M melanoma", "result": 7.54, "unit": "µM"}, {"measurement": "TGI", "setting": "LOX IMVI melanoma", "result": 1.89, "unit": "µM"}, {"measurement": "TGI", "setting": "A498 renal", "result": 25.7, "unit": "µM"}, {"measurement": "TGI", "setting": "RXF 393 renal", "result": 12, "unit": "µM"}, {"measurement": "TGI", "setting": "SF-268 CNS", "result": 23, "unit": "µM"}, {"measurement": "TGI", "setting": "KM12 colon", "result": 23.5, "unit": "µM"}, {"measurement": "TGI", "setting": "MDA-MB-231 breast", "result": 19.8, "unit": "µM"}, {"measurement": "TGI", "setting": "SF-295 CNS", "result": 24.8, "unit": "µM"}, {"measurement": "TGI", "setting": "IGROV1 ovarian", "result": 3.29, "unit": "µM"}, {"measurement": "TGI", "setting": "TK-10 renal", "result": 14.9, "unit": "µM"}, {"measurement": "TGI", "setting": "SW-620 colon", "result": 12.7, "unit": "µM"}, {"measurement": "TGI", "setting": "HCT-116 colon", "result": 17.4, "unit": "µM"}, {"measurement": "TGI", "setting": "HCT-15 colon", "result": 16.6, "unit": "µM"}, {"measurement": "TGI", "setting": "CCRF-CEM leukemia", "result": 0.983, "unit": "µM"}, {"measurement": "TGI", "setting": "K-562 leukemia", "result": "> 100", "unit": "µM"}, {"measurement": "TGI", "setting": "UO-31 renal", "result": 1.61, "unit": "µM"}, {"measurement": "TGI", "setting": "MDA-N", "result": 25.5, "unit": "µM"}, {"measurement": "TGI", "setting": "A549 NSCLC", "result": 37.1, "unit": "µM"}, {"measurement": "TGI", "setting": "DU-145 prostate", "result": 12.1, "unit": "µM"}, {"measurement": "TGI", "setting": "U251 CNS", "result": 16.9, "unit": "µM"}, {"measurement": "TGI", "setting": "MOLT-4 leukemia", "result": 4.72, "unit": "µM"}, {"measurement": "TGI", "setting": "NCI/ADR-RES ovarian", "result": 45.4, "unit": "µM"}, {"measurement": "TGI", "setting": "PC-3 prostate", "result": 18, "unit": "µM"}, {"measurement": "TGI", "setting": "COLO 205 colon", "result": 9.61, "unit": "µM"}, {"measurement": "TGI", "setting": "SF-539 CNS", "result": 5.25, "unit": "µM"}, {"measurement": "TGI", "setting": "HS 578T breast", "result": 38.2, "unit": "µM"}, {"measurement": "TGI", "setting": "M14 melanoma", "result": 21.2, "unit": "µM"}, {"measurement": "TGI", "setting": "SN12C renal", "result": 20.5, "unit": "µM"}, {"measurement": "TGI", "setting": "OVCAR-4 ovarian", "result": 20.6, "unit": "µM"}, {"measurement": "TGI", "setting": "T-47D breast", "result": 18, "unit": "µM"}, {"measurement": "TGI", "setting": "SK-MEL-5 melanoma", "result": 26.2, "unit": "µM"}, {"measurement": "TGI", "setting": "SK-MEL-28 melanoma", "result": 27.2, "unit": "µM"}, {"measurement": "TGI", "setting": "SR leukemia", "result": 17.1, "unit": "µM"}, {"measurement": "TGI", "setting": "HOP-92 NSCLC", "result": 1.08, "unit": "µM"}, {"measurement": "TGI", "setting": "ACHN renal", "result": 13.9, "unit": "µM"}, {"measurement": "TGI", "setting": "UACC-62 melanoma", "result": 21.7, "unit": "µM"}, {"measurement": "TGI", "setting": "UACC-257 melanoma", "result": 25.2, "unit": "µM"}, {"measurement": "TGI", "setting": "NCI-H23 lung", "result": 29.9, "unit": "µM"}, {"measurement": "TGI", "setting": "CAKI-1 renal", "result": 3.06, "unit": "µM"}, {"measurement": "TGI", "setting": "SNB-19 CNS", "result": 36.6, "unit": "µM"}, {"measurement": "TGI", "setting": "SK-MEL-2 melanoma", "result": 26.2, "unit": "µM"}, {"measurement": "TGI", "setting": "HT29 colon", "result": 18.6, "unit": "µM"}, {"measurement": "TGI", "setting": "BT-549 breast", "result": 28.9, "unit": "µM"}, {"measurement": "TGI", "setting": "RPMI-8226 leukemia", "result": 5.61, "unit": "µM"}, {"measurement": "TGI", "setting": "NCI-H460 lung", "result": 23.8, "unit": "µM"}, {"measurement": "TGI", "setting": "HOP-62 NSCLC", "result": 35.1, "unit": "µM"}, {"measurement": "TGI", "setting": "OVCAR-3 ovarian", "result": 13.4, "unit": "µM"}, {"measurement": "TGI", "setting": "OVCAR-8 ovarian", "result": 18.4, "unit": "µM"}]}
